# Experimental data as given in US11849742B2, “Tasteful natural sweetener and flavor” (priority 2018, dated 2023).
# Columns and labels:
# [1] = Kinetics of reaction: degradation of Phe and Reb-A, Gluc, Xyl, Suc at various pH-conditions (HPLC/MS); format: physicochemical
# Procedure: Quantitative evaluation was performed using external standardization.
# Kinetics of Reaction in dependence of pH-conditions
# [2] = non-sugar natural sweeteners of Momordica grosvenori juice or extract; cited from earlier work
# [3] = Assay to test reducing power (iron-III reduction); conditions: iron-III reduction and radical scavenging (FIG. 49, FIG. 50); amino acids and Reb-A, 100° C., pH 7.8
# Procedure: 0.2 M Sodium phosphate buffer, pH=6.6; 500 mg Potassium ferric(III)cyanide/50 mL water, 10% Trichloroacetic acid; 20 mg Iron-III-Chloride/20 mL water; Calibration samples were prepared with Ascorbic acid in a concentration of 0-100 μg/mL 0.2 M Sodium phosphate buffer, pH=6.6 (freshly prepared); as negative control sample water was used.
# Samples in aqueous solution were used as such or diluted in 0.2 M Sodium phosphate buffer, pH=6.6.
# A 1 mL sample (or calibration standard) was mixed with 1 mL 0.2 M Sodium phosphate buffer, pH=6.6 and 1 ml Potassium ferricyanide solution. The sample was incubated and protected from light at 50° C. for 20 min.
# To the solution was added 1 mL Trichloroacetic acid with thorough mixing.
# A 1 mL of the mixture was diluted with 1 ml H2O and 0.2 ml Iron-III-chloride and reacted for 10 minutes; The absorbance was then determined at 700 nm against H2O.
# 10 mM of amino acid and/or 10 mM sugar were dissolved in 10 ml 0.1 mM KH2PO4-buffer, pH=7.8. […]
# 1 ml sample (or calibration standard) solution) was mixed with 0.2 M Sodium phosphate buffer (pH=6.6) and 1 ml Potassium ferric(III)cyanide solution in water (1% w/v) and incubated at 50° C. for 20 minutes. […] The sample was incubated for 10 minutes and absorbance read at 700 nm against a water control. […]
# Quantification was performed by linear regression of calibration test results for ascorbic acid. […]
smiles,measurement,setting,value
N[C@@H](CCC(=O)O)C(=O)O [Glu],% degradation,[1]; pH = 5.5,3.65%
same,% degradation,[1]; pH = 7.0,4.6%
same,% degradation,[1]; pH = 8.5,7.62%
C[C@H](CC[C@@H](O[C@@H]1O[C@H](CO)[C@@H](O)[C@H](O)[C@H]1O[C@@H]1O[C@H](CO)[C@@H](O)[C@H](O)[C@H]1O)C(C)(C)O)[C@H]1CC[C@@]2(C)[C@H]3CC=C4[C@@H](CC[C@H](O[C@@H]5O[C@H](CO[C@@H]6O[C@H](CO)[C@@H](O)[C@H](O)[C@H]6O)[C@@H](O)[C@H](O)[C@H]5O)C4(C)C)[C@]3(C)[C@H](O)C[C@]12C [mogroside IV],"natural sweetness, times of that of sugar",[2],126 times of that of sugar
OC[C@@H](O)[C@@H](O)[C@H](O)[C@H](O)CO [D-mannitol],"natural sweetness, times of that of sugar",[2],0.55-0.65 times of that of sugar
"C=C1C[C@@]23CC[C@H]4[C@@](C)(CCC[C@@]4(C)C(=O)O[C@@H]4O[C@H](CO)[C@@H](O)[C@H](O)[C@H]4O)[C@@H]2CC[C@]1(O[C@@H]1O[C@H](CO)[C@@H](O)[C@H](O[C@@H]2O[C@H](CO)[C@@H](O)[C@H](O)[C@H]2O)[C@H]1O[C@@H]1O[C@H](CO)[C@@H](O)[C@H](O)[C@H]1O)C3 [Reb-A, Rebaudioside A]",anti-oxidant properties,[3],substantial anti-oxidant properties
C[C@H](CC[C@@H](O[C@@H]1O[C@H](CO[C@@H]2O[C@H](CO)[C@@H](O)[C@H](O)[C@H]2O)[C@@H](O)[C@H](O)[C@H]1O[C@@H]1O[C@H](CO)[C@@H](O)[C@H](O)[C@H]1O)C(C)(C)O)[C@H]1CC[C@@]2(C)[C@@H]3CC=C4[C@@H](CC[C@H](O[C@@H]5O[C@H](CO[C@@H]6O[C@H](CO)[C@@H](O)[C@H](O)[C@H]6O)[C@@H](O)[C@H](O)[C@H]5O)C4(C)C)[C@]3(C)[C@H](O)C[C@]12C [mogroside V],"natural sweetness, times of that of sugar",[2],256-344 times of that of sugar
